The text below walks through data of ChEMBL document CHEMBL1154291, “Synthesis and SAR of 2-phenyl-1-sulfonylaminocyclopropane carboxylates as ADAMTS-5 (Aggrecanase-2) inhibitors” (Bioorg Med Chem Lett, 2009).

Data set [1] concerns the target T1, A disintegrin and metalloproteinase with thrombospondin motifs 5 (Homo sapiens, UniProt Q9UNA0).
T1 sequence (Q9UNA0 whole entry): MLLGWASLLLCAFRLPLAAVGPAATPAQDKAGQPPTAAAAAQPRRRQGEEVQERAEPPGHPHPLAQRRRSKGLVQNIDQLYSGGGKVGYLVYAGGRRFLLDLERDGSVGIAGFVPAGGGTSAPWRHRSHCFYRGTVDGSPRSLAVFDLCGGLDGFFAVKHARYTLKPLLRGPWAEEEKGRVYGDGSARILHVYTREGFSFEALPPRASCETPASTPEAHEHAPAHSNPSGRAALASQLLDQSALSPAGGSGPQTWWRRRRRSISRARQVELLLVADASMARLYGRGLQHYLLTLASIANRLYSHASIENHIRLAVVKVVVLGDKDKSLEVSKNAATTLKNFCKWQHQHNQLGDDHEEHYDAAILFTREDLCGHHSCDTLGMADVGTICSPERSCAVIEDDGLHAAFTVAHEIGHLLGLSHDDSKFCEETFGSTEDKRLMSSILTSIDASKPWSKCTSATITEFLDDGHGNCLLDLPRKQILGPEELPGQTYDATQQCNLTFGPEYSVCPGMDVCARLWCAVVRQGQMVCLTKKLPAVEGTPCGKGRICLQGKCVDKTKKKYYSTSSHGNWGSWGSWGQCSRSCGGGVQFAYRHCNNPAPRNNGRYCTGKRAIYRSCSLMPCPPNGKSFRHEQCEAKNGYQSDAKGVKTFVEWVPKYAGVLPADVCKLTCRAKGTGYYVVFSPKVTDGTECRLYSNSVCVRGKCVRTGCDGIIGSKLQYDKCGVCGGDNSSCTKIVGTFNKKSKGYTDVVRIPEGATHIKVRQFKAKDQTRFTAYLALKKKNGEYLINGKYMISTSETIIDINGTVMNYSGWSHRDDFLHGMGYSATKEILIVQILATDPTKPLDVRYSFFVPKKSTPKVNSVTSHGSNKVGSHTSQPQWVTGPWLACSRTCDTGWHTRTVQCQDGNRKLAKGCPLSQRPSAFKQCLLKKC
Kind of data set: Inhibition of ADAMTS5.

The target in data set [2] is T2, A disintegrin and metalloproteinase with thrombospondin motifs 5 (Homo sapiens) (UniProt Q9UNA0).
T2 sequence (whole entry): T1 sequence (Q9UNA0 whole entry)
Briefly: Inhibition of ADAMTS5 at 1 uM.

Data set [3] concerns the target T2, A disintegrin and metalloproteinase with thrombospondin motifs 5 (Homo sapiens). Briefly: Inhibition of ADAMTS5 at 0.3 uM.
Data set [4] has as its target Disintegrin and metalloproteinase domain-containing protein 17 (Homo sapiens, UniProt P78536). Kind of data set: Inhibition of TACE.
Data set [5] in a line: Half life in rat. It counts as ADME, organism-based. The conditions noted are these: in vivo.
Data set [6] can be described thus: Oral bioavailability in rat. It counts as ADME, organism-based. The settings on record: in vivo.
The target of another data set is T3, Interstitial collagenase (Homo sapiens, UniProt P03956).
T3 sequence (P03956 whole entry): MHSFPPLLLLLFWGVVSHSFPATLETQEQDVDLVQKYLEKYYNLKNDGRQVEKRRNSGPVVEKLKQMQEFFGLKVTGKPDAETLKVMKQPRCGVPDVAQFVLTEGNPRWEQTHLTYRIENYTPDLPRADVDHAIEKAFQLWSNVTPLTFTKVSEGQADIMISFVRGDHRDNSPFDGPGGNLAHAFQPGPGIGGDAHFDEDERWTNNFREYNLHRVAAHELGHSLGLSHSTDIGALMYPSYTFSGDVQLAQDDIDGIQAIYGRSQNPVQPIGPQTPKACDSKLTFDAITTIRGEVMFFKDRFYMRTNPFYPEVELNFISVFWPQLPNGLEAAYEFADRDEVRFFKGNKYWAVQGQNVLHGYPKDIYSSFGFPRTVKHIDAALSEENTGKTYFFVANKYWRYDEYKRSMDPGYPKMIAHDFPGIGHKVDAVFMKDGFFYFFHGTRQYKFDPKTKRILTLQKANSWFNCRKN
Briefly: Inhibition of MMP-1.

Chain of Disintegrin and metalloproteinase domain-containing protein 17 (P78536 whole entry, the tested form may be a part): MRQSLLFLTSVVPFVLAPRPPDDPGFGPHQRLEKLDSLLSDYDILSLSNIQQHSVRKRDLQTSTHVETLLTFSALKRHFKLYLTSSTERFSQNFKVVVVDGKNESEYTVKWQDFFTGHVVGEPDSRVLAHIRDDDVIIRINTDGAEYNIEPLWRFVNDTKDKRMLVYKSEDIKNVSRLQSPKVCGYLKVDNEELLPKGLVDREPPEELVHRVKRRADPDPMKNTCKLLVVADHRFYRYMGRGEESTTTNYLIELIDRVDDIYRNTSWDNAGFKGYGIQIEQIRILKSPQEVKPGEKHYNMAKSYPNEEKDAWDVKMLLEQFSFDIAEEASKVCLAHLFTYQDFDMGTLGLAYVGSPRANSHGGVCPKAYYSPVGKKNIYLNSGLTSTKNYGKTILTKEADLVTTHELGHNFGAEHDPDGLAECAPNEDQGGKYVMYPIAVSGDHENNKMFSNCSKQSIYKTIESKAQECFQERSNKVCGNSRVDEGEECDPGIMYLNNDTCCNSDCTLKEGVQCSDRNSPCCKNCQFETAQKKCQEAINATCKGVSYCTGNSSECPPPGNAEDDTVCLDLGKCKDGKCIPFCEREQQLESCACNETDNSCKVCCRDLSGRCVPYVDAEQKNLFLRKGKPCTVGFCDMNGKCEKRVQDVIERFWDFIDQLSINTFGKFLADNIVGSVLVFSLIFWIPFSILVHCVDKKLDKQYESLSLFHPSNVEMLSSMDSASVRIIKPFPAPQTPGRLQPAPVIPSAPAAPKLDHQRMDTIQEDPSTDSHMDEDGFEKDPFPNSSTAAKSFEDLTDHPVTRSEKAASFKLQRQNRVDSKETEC

As for `O=C(O)[C@@]1(NS(=O)(=O)c2ccc(-c3ccc(Cl)cc3)cc2)C[C@H]1c1ccccc1`, inhibition in data set [1] was half-maximal at 210 nM (IC50).

`O=C(O)[C@]1(NS(=O)(=O)c2ccc(-c3ccc(Cl)cc3)cc2)C[C@@H]1c1ccccc1`: in data set [1], the IC50 came to 84 nM.

As for `O=C(O)[C@]1(NS(=O)(=O)c2ccc(-c3ccc(Cl)cn3)s2)C[C@@H]1c1ccccc1`, in data set [1], it took 100 nM to reach half-maximal inhibition (IC50).

On to `O=C(O)[C@]1(NS(=O)(=O)c2ccc(-c3cccc(Cl)c3)s2)C[C@@H]1c1ccccc1`, for which, in data set [1], the IC50 worked out at 94 nM.

`O=C(O)[C@]1(NS(=O)(=O)c2ccc(-n3cc(Cl)cn3)s2)C[C@@H]1c1ccccc1` had an IC50 in data set [1] of 80 nM.

`C[C@]1(c2ccccc2)C[C@@]1(NS(=O)(=O)c1ccc(-c2ccc(Cl)cc2)s1)C(=O)O` displayed an IC50 in data set [1] of 10 nM.

On to `O=C(O)[C@]1(NS(=O)(=O)c2ccc(-n3cc(Cl)cn3)s2)C[C@@H]1C1CCCCC1` (racemic), for which, in data set [1], the IC50 stood at 360 nM.

With `O=C(O)[C@]1(NS(=O)(=O)c2ccc(-c3ccccc3Cl)s2)C[C@@H]1c1ccccc1`, the inhibition in data set [2] was found to be 48%.

For the compound `COC(=O)c1cn(CCN([C@@]2(C(=O)O)C[C@@H]2c2ccccc2)S(=O)(=O)c2ccc(-c3ccc(Cl)cc3)cc2)cn1`, the inhibition in data set [3] turned out to be 18%.

Consider `O=C(O)[C@]1(NS(=O)(=O)c2ccc(-c3ccc(Cl)cc3)s2)C[C@@H]1c1ccccc1`, for which, in data set [1], the IC50 is 60 nM.

As to `O=C(O)[C@]1(NS(=O)(=O)c2ccc(-n3cc(Cl)cn3)s2)C[C@@H]1Cc1ccccc1` (racemic), the inhibition in data set [2] amounted to 25%.

`C[C@@H]1[C@H](C)[C@]1(NS(=O)(=O)c1ccc(-n2cc(Cl)cn2)s1)C(=O)O` displayed an IC50 in data set [1] of 800 nM.

Turning to `C[C@]1(c2ccccc2)C[C@@]1(NS(=O)(=O)c1ccc(-n2cc(Cl)cn2)s1)C(=O)O`, in data set [1], 32 nM corresponded to half-maximal inhibition (IC50).

For the compound `C[C@@H]1[C@H](c2ccccc2)[C@]1(NS(=O)(=O)c1ccc(-c2ccc(Cl)cc2)s1)C(=O)O`, in data set [1], the IC50 worked out at 21 nM.

In data set [1], `C[C@H]1[C@H](c2ccccc2)[C@]1(NS(=O)(=O)c1ccc(-c2ccc(Cl)cc2)s1)C(=O)O` (racemic) yielded an IC50 of 120 nM.

Regarding `CC1(C)C[C@@]1(NS(=O)(=O)c1ccc(-n2cc(Cl)cn2)s1)C(=O)O` (racemic), the inhibition in data set [2] worked out at 19.6%.

With `C[C@@H]1[C@H](c2ccccc2)[C@]1(NS(=O)(=O)c1ccc(-n2cc(Cl)cn2)s1)C(=O)O` (racemic), the values for the IC50 (in data set [4]; in data set [1]; at Interstitial collagenase) were 4000 nM, 7.4 nM and 180 nM, respectively. This compound showed a half-life in data set [5] of 4.5 h. In addition, in data set [6], the bioavailability amounted to 81%.

`CC(C)[C@H]1C[C@@]1(NS(=O)(=O)c1ccc(-n2cc(Cl)cn2)s1)C(=O)O` (racemic): the IC50 in data set [1] came to 770 nM.

In the case of `O=C(O)[C@]1(NS(=O)(=O)c2ccc(-n3cc(Cl)cn3)s2)CC[C@@H]1c1ccccc1` (racemic), the inhibition in data set [2] is -0.84%.

`C[C@H]1C[C@@]1(NS(=O)(=O)c1ccc(-n2cc(Cl)cn2)s1)C(=O)O` (racemic): the inhibition in data set [2] was 3.5%.
